From patent US6774139B1, “Dual function microbicides” (Parker Hughes Institute, priority 2000, dated 2004) come the findings set out here.

Like-named read-outs stand apart in the source and are kept apart here.

The test system of data set [1] is normal human ectocervical epithelial cells. Kind of data set: MTT cell viability assay, ectocervical epithelial cells. In kind it is cell-based. Conditions: read-out: IC50[MTT] ectocervical epithelial cells. The protocol:
(§1) Briefly, exponential growing vaginal, ectocervical, and endocervical epithelial cells were seeded into 96-well plates at a density of 2×10^4 cells/well and incubated for 24 h at 37° C. prior to drug exposure. On the day of treatment, culture medium was aspirated from the wells and replaced with fresh medium containing serial two-fold drug concentrations ranging from 7.8 μM to 1000 μM. N-9 (IGEPAL CO-630; Rhone Poulenc, Cranbury, N.J.) was diluted in PBS. Triplicate wells were used for each treatment. Culture plates were then incubated for 3 hours before adding 10 μl of MTT solution (5 mg/ml in PBS) to each well. Wells containing only medium and MTT were used as control for each plate. The tetrazolium/formazan reaction was allowed to proceed for 4 hours at 37° C., and then 100 μl of the solubilization buffer (10% sodium dodecyl sulfate in 0.1% HCl) was added to all wells and mixed thoroughly to dissolve the dark blue formazan crystals. After an overnight incubation at 37° C., the OD at 540 nm were measured using a 96-well multiscanner autoreader with the solubilization buffer serving as blank. To translate the OD540 values into the number of live cells in each well, the OD540 values were compared to those of standard OD540-versus-cell number curves generated for each cell line. The percent survival was calculated using the formula: % survival=Live cell number [test]/Live cell number [control]×100. The results were expressed as mean IC50 values for three independent experiments. The IC50 [MTT] was defined as the concentration required for 50% reduction in cell survival.
(§2) Cell viability was measured by the MTT assay.
A general note: Tetrazolium dyes change colour on reduction, which living cells bring about.

The test system of data set [2] is normal human vaginal epithelial cells. Put plainly: MTT cell viability assay, vaginal epithelial cells. Format: cell-based. As to conditions: read-out: IC50[MTT] vaginal epithelial cells. The protocol: as §1, §2
Data set [3] has as its system normal human endocervical epithelial cells. Kind of data set: MTT cell viability assay, endocervical epithelial cells. In kind it is cell-based. As to conditions: read-out: IC50[MTT] endocervical epithelial cells. The protocol:
as §1, §2

Another data set relates to human sperm. Put plainly: sperm immobilizing activity (SIA) by CASA. Format: cell-based. Conditions: for EC50: read-out: EC50 [SIA]; for effective 100% inhibitory concentration (EC100), sperm motility: FIG. 1, CASA. Here is the method: To evaluate the effect of each of the 31 thiourea compounds on human sperm motility and kinematics, highly motile fractions of sperm were prepared from donor semen (n=8) by discontinuous (90-45%) gradient centrifugation using Enhance Plus medium (Conception Technologies, San Diego, Calif.) and the “swim-up” method. The swim-up method was used after density gradient centrifugation, washing, and resuspension of sperm in BWW-3% BSA. Pooled swim-up fraction was washed once prior to spermicidal assay.
All donor semen specimens were obtained after informed consent and in compliance with the guidelines of the Parker Hughes Institute Institutional Review Board. […] The stock solutions of thioureas were prepared in DMSO (100 mM) and diluted in assay medium to yield the desired concentrations (up to 1000 μM). Corresponding volume of DMSO (either 0.5% or 1%) was added to control tubes. After 3 hours of incubation at 37° C., the percentage of motile sperm was evaluated by CASA [53, 62-64]. The percent motilities were compared with sham-treated control suspensions of motile sperm.
For CASA, 5-μl of each sperm suspension was loaded into a 20-μm Microcell slide (Conception Technologies) in a counting chamber at 37° C. At least 5-8 fields per slide were scanned for analysis using a Hamilton Thome Integrated Visual Optical System (IVOS), version 10 instrument (Hamilton Thome Research Inc., Danvers, Mass.). Each field was recorded for 30 seconds. The computer calibrations were set at 30 frames at a frame rate of 30/second.
The sperm kinematics parameters that were determined included numbers of motile (MOT) and progressively (PRG) motile sperm; curvilinear velocity (VCL; a measure of the total distance traveled by a given sperm during the acquisition divided by the time elapsed); average path velocity (VAP; the spatially averaged path that eliminates the wobble of the sperm head), straight line velocity (VSL; the straight-line distance from beginning to end of track divided by time taken), beat cross frequency (BCF; frequency of sperm head crossing sperm average path), the amplitude of lateral head displacement (ALH; the mean width of sperm head oscillation), and the derivatives, straightness (STR=VSL/VAP×100) and linearity (LIN=VSL/VCL×100; departure of sperm track from a straight line). Data from each individual cell track were recorded and analyzed. At least 200 motile sperm were analyzed for each aliquot sampled.

The target of data set [4] is T1, purified recombinant HIV-1 RT (Human immunodeficiency virus type 1 group M subtype B, UniProt P03366).
T1 construct: purified recombinant HIV-1 RT
Kind of data set: cell-free Quan-T-RT RT inhibition assay (scintillation proximity). Format: biochemical. Conditions: IC50 [rRT], purified recombinant HIV-1 RT, cell-free. Here is the method:
Each of the thirty one thiourea compounds was tested for RT inhibitory activity against purified recombinant HIV-1 RT using the cell-free Quan-T-RT system (Amersham Corp., Arlington Heights, Ill.), which utilizes the scintillation proximity assay principle.
Background: Scintillation proximity formats need no separation of bound from free tracer.

In a further data set the test system is HIV-1 strain HTLVIIIB
Kind of data set: p24 antigen production in HIV-1 infected PBMCs. Format: cell-based. As to conditions: Human immunodeficiency virus 1, PBMC. Here is the method: The HTLVIIIB strain of HIV-1 was propagated in CCRF-CEM cells and the virus stocks obtained from cell-free supernatants of infected cells were titered using MT-2 cells. Cell-free supernatants were harvested and frozen in 1 ml aliquots at −70° C.
Stock solutions (10 mM) of thiourea compounds were prepared in dimethylsulfoxide (DMSO). Cells were cultured for 7 days in 96-well microtiter plates (100 μl/well; 2×10^6 cells/ml, triplicate wells) in the presence and absence of various concentrations (0.001 μM to 100 μM) of the thioureas. Cells from non-infected controls were handled in the same way except the virus was omitted from the preparation. Aliquots of culture supernatants were removed from the wells on the 7th day after infection for p24 antigen as previously described. The p24 enzyme immunoassay was the unmodified kinetic assay available commercially (Coulter Corporation/Immunotech, Inc., Westbrook, Me.). The assay uses a murine monoclonal antibody (mAb) to the HIV core protein coated onto microwell strips to which the antigen present in the test culture supernatant sample binds. The plates were read on a ELISA reader (Molecular Devices, Sunnyvale, Calif.) at 650 nm and p24 levels, expressed as ng/ml, were calculated against known standards supplied by Coulter/Imrunotech, Inc. Percent viral inhibition was calculated by comparing the p24 values for the test substance-treated infected cells with the p24 values for untreated infected cells (i.e., virus controls). […]

A short description of data set [5]: partition coefficient n-octanol/water (Pa). In kind it is physicochemical. Conditions: UV absorption. Here is the method:
Partition of the test compounds between n-octanol and water as a measure of their lipophilicity was determined by taking the UV absorption of each compound in n-octanol, water-saturated n- octanol (1:1), and n-octanol-saturated water (1:1). The UV absorption maxima were determined by selecting a wavelength with the maximum absorption peak in the water-saturated octanol layer and the corresponding peak in the octanol-saturated water. Three absorption spectra were obtained for each compound. The partion coefficient (Pa) was calculated as the ratio of the compound concentration present in the lipid phase to the compound concentration present in the aqueous phase.

Setting [6] is: HIV-1 HTLVIIIB infected human PBMC, p24 antigen on 7th day, read-out: IC50 [p24].
[7] abbreviates: motile human sperm, 3 hours at 37° C., CASA.
Setting [8] is: HIV-1 HTLVIIIB infected human PBMC, values in nM, read-out: IC50[p24].

Consider `CCCCCCCCCc1ccc(OCCOCCOCCOCCOCCOCCOCCOCCOCCO)cc1` [Compound N-9, nonoxynol-9, reference compound], for which the values for the concentration for half-maximal inhibition (IC50) in data set [1] (3 h), in data set [2] (3 h) and in data set [3] (3 h) were 58 µM, 64 µM and 32 µM, respectively. Moreover, in the data set on human sperm (Homo sapiens, Sperm, 3 h), the 50% effective concentration (EC50) – broadly, the concentration at which the effect is half-maximal – was 81 µM.

In the case of `S=C(NCCc1ccccn1)Nc1ccccn1` [HI 207], the half-inhibitory concentration (IC50) – broadly, the concentration that inhibits the measured activity by half – is more than 1000 µM in data set [1] (3 h exposure, MTT); more than 1000 µM in data set [2] (3 h exposure, MTT); more than 1000 µM in data set [3] (3 h exposure, MTT); 0.39 µM in data set [4]; 270 nM in the data set on HIV-1 strain HTLVIIIB (setting [6]). The 50% effective concentration (EC50) in the data set with human sperm (setting [7]) is 279 µM. Also, the “Pa, Partition coefficient” value in data set [5] stood at 2.32.

Take `Fc1ccccc1CCNC(=S)Nc1ccc(Br)cn1` [HI 240]: the half-inhibitory concentration (IC50) in data set [1] (3 h exposure, MTT) was more than 1000 µM; in data set [2] (3 h exposure, MTT) it was more than 1000 µM; in data set [3] (3 h exposure, MTT), more than 1000 µM; in data set [4], 0.6 µM; in the data set on HIV-1 strain HTLVIIIB (setting [6]) it was less than 1 nM; in the data set with HIV-1 strain HTLVIIIB (setting [8]) it was less than 1 nM. Moreover, the 50% effective concentration (EC50) in the data set on human sperm (setting [7]) is 147 µM. Also, in data set [5], the “Pa, Partition coefficient” value turned out to be 1.20.

Take `S=C(NCCc1ccccc1Cl)Nc1ccc(Br)cn1` [HI 253]: the IC50 in data set [1] (3 h exposure, MTT) was more than 1000 µM; in data set [2] (3 h exposure, MTT) it was more than 1000 µM; in data set [3] (3 h exposure, MTT) it was more than 1000 µM; in data set [4] it was 0.7 µM; in the data set with HIV-1 strain HTLVIIIB (setting [6]) it was less than 1 nM; in the data set with HIV-1 strain HTLVIIIB (setting [8]) it was less than 1 nM. Further, the concentration giving a half-maximal response (EC50) in the data set with human sperm (setting [7]) stood at 70 µM. The “Pa, Partition coefficient” value in data set [5] was 1.04.

As for `S=C(NCCC1=CCCCC1)Nc1ccc(Br)cn1` [HI 346], the IC50 in data set [1] (3 h exposure, MTT) was 765 ± 400 µM; in data set [2] (3 h exposure, MTT) it was more than 1000 µM; in data set [3] (3 h exposure, MTT) it was 580 ± 48 µM; in data set [4], 0.6 µM; with HIV-1 strain HTLVIIIB (read-out: IC50 [p24]), 3 nM; in the data set with HIV-1 strain HTLVIIIB (read-out: IC50[p24]), 3 nM. Moreover, the “effective 100% inhibitory concentration (EC100), sperm motility” value with human sperm turned out to be 0.25 mM. For the same molecule, in the data set on human sperm (setting [7]), the EC50 was found to be 42 µM. For the same molecule, the “Pa, Partition coefficient” value in data set [5] is 8.6.

As to `S=C(NCCC1=CCCCC1)Nc1ccc(Cl)cn1` [HI 445], the IC50 in data set [1] (3 h exposure, MTT) was found to be 692 ± 139 µM; in data set [2] (3 h exposure, MTT) it was 578 ± 25 µM; in data set [3] (3 h exposure, MTT), 185 ± 21 µM; with HIV-1 strain HTLVIIIB (read-out: IC50 [p24]), 3 nM; in the data set on HIV-1 strain HTLVIIIB (read-out: IC50[p24]) it was 3 nM. The “effective 100% inhibitory concentration (EC100), sperm motility” value with human sperm is 1 mM. The concentration for a half-maximal effect (EC50) in the data set with human sperm (setting [7]) amounted to 57 µM. Moreover, in data set [5], the “Pa, Partition coefficient” value is recorded as 6.3.
